Measured values from publication PMC5919452 (Japanese Journal of Cancer Research : Gann, 1994).

Assays:
[1] = molecular target: epidermal growth factor (EGF) receptor kinase (Homo sapiens, UniProt P00533); experiment: EGF receptor kinase inhibition; assay type: biochemical; conditions: read-out: IC50 for epidermal growth factor (EGF) receptor kinase
erbB‐2 = erbB‐2 (Homo sapiens, UniProt P04626); experiment: erbB-2 tyrosine kinase inhibition; assay type: biochemical; conditions: read-out: IC50 for erbB‐2
erbB‐2, sequence (P04626 23-1255, species assumed): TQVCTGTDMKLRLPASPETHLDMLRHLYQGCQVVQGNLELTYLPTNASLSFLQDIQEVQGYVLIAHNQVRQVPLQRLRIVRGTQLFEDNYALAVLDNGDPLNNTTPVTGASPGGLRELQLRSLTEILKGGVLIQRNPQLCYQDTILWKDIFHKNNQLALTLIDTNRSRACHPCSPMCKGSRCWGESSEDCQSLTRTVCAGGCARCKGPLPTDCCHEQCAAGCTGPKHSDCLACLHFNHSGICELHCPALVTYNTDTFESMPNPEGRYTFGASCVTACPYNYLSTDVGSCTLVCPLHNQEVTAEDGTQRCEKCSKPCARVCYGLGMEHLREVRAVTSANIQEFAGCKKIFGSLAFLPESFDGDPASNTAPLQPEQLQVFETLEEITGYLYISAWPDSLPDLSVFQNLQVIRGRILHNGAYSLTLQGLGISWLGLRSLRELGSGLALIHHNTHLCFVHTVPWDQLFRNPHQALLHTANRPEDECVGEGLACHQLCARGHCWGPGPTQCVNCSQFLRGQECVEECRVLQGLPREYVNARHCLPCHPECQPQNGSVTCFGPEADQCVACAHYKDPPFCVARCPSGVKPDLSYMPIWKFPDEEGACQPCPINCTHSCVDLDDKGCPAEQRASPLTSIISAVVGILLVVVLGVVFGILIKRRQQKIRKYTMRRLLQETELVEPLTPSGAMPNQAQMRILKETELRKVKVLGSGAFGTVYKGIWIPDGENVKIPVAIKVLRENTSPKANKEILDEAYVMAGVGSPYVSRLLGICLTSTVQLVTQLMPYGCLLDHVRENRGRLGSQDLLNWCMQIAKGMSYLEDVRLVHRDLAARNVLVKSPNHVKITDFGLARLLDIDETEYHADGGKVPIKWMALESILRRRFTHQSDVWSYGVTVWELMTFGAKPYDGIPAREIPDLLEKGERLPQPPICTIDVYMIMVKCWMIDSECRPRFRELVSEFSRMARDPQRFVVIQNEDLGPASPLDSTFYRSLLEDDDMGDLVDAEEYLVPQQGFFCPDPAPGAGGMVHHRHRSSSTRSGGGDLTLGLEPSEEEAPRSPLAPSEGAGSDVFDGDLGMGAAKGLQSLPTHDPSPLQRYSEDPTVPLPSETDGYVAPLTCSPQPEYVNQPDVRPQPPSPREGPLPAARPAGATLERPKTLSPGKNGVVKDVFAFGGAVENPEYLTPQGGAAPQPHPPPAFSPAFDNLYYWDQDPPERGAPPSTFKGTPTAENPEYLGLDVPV

p43^v‐abl = experiment: p43v-abl tyrosine kinase inhibition; assay type: biochemical; conditions: read-out: IC50 for p43^v‐abl
insulin receptor kinase = insulin receptor kinase (Homo sapiens, UniProt P06213); experiment: insulin receptor kinase inhibition; assay type: biochemical; conditions: read-out: IC50 for insulin receptor kinase
insulin receptor kinase, sequence (P06213 28-1382): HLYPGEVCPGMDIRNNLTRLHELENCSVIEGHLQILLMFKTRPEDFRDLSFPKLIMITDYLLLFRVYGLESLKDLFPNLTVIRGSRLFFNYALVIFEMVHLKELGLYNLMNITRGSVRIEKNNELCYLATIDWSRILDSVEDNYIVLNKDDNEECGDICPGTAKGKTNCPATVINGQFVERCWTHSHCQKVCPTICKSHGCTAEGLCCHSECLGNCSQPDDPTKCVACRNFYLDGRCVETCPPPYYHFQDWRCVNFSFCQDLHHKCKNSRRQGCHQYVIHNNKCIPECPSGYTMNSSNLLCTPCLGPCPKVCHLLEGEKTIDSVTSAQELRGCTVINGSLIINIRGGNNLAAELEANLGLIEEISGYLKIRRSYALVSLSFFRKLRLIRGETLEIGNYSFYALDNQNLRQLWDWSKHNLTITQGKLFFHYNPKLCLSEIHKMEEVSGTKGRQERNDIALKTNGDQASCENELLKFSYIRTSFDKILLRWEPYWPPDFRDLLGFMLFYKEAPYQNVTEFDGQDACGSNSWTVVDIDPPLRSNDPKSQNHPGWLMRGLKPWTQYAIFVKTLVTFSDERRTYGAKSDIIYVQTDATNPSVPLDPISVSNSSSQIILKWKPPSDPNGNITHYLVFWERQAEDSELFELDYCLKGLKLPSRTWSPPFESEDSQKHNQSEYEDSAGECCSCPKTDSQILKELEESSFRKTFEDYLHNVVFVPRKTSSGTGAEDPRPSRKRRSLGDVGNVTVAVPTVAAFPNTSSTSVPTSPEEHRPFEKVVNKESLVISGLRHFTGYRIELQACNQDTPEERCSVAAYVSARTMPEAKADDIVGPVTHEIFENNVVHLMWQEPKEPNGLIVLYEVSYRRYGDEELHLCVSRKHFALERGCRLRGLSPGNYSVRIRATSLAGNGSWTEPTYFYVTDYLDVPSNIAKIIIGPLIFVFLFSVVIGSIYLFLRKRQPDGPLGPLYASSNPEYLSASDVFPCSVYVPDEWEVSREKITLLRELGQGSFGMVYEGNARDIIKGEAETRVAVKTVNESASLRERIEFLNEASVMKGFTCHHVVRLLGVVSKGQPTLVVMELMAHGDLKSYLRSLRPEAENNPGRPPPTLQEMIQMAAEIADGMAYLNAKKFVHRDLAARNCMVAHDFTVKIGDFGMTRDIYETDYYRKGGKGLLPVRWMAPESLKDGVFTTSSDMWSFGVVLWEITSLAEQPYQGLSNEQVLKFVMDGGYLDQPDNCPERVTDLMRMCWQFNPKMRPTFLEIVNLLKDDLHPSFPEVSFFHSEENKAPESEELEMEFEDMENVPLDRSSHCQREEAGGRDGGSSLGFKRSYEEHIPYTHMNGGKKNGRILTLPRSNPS

p60^c‐src = p60^c‐src (Homo sapiens, UniProt P12931); experiment: p60c-src tyrosine kinase inhibition; assay type: biochemical; conditions: read-out: IC50 for p60^c‐src
p60^c‐src, sequence (P12931 whole entry): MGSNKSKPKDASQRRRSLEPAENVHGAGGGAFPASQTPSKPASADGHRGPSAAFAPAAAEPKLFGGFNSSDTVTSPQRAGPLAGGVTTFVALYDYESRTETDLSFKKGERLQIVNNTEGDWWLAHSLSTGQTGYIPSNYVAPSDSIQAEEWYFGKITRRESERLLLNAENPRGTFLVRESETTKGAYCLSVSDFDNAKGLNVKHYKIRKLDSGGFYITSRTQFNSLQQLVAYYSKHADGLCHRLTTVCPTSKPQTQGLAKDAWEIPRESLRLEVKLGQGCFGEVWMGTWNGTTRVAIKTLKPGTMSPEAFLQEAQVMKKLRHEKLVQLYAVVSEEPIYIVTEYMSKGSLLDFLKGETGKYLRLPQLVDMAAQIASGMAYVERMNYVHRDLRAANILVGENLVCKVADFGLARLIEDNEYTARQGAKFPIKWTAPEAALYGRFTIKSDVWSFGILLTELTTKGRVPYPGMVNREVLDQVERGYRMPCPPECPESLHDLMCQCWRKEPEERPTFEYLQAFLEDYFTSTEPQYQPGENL

protein kinase C = protein kinase C inhibition; assay type: biochemical; conditions: read-out: IC50 for protein kinase C; serine/threonine kinase
Cdc2 kinase = Cdc2 kinase (Homo sapiens, UniProt P06493); experiment: Cdc2 kinase inhibition; assay type: biochemical; conditions: 20 μM
Cdc2 kinase, sequence (P06493 whole entry): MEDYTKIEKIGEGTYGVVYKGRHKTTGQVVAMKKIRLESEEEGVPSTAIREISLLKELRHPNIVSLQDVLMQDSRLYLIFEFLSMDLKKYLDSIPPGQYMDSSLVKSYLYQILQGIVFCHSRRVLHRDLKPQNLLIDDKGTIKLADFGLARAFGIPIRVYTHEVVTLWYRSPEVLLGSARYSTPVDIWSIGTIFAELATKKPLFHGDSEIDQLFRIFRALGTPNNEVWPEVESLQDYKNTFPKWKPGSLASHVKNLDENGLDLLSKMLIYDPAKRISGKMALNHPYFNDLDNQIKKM
Cdc2 kinase, sequence (P14635 whole entry partner): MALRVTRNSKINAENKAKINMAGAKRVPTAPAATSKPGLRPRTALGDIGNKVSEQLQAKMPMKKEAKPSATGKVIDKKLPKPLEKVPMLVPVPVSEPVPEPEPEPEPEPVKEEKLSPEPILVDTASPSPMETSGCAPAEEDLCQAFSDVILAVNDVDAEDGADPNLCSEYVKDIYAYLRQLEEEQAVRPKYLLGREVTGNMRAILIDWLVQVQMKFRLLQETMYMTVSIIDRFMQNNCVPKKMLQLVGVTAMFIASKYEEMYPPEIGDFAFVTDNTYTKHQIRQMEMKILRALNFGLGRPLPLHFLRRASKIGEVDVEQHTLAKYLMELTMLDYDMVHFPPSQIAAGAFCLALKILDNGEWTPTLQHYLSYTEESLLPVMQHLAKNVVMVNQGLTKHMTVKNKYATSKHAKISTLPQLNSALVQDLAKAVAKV

casein kinase I = casein kinase I inhibition; assay type: biochemical; conditions: 20 μM
casein kinase II = casein kinase II inhibition; assay type: biochemical; conditions: 20 μM
[2] = system: cAMP‐dependent protein kinase; experiment: cAMP-dependent protein kinase inhibition; assay type: biochemical; conditions: 20 μM
EGF receptor [3] = molecular target: T1, EGF receptor (Homo sapiens, UniProt P00533); experiment: kinetic study of kinase inhibition; assay type: biochemical
T1 sequence (P00533 25-1210): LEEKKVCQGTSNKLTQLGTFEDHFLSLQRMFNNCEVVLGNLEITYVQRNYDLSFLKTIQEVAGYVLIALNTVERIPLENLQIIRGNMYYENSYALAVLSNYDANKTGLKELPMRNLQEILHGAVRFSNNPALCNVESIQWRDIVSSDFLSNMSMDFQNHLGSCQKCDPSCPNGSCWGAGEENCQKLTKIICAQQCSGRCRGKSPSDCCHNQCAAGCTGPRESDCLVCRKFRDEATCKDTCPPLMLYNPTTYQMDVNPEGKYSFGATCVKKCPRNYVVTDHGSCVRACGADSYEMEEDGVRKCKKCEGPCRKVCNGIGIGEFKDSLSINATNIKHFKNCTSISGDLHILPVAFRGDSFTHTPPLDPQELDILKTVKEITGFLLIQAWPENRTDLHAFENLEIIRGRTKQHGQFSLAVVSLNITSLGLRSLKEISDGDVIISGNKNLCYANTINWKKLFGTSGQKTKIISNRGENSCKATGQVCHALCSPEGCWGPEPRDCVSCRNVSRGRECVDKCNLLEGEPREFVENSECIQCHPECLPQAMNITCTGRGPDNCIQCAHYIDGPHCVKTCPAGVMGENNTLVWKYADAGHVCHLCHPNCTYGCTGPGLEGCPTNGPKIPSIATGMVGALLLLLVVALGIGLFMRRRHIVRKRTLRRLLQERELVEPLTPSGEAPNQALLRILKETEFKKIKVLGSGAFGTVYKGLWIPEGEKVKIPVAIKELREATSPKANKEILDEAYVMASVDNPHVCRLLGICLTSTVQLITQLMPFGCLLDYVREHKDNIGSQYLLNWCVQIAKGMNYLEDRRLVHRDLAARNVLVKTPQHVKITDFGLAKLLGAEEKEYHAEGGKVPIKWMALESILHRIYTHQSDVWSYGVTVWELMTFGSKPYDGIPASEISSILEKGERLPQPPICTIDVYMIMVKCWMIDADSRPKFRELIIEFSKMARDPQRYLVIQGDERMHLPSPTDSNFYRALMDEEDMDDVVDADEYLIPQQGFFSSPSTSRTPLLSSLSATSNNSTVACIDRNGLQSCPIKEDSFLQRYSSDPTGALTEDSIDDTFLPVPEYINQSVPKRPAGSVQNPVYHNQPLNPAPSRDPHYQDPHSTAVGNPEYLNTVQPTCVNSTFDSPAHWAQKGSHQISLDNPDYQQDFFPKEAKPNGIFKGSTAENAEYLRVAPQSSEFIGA

EGF receptor [4] = molecular target: T1, EGF receptor; experiment: autophosphorylation of EGF receptor in A431 cells; assay type: cell-based

O=C1OC(c2ccc(O)c(O)c2)=C/C1=C\c1ccc(O)c(O)c1 [BE‐23372M]
IC50 [1]: 0.03 µM
IC50 (erbB‐2): 0.42 µM
IC50 (p43^v‐abl): 1 µM
IC50 (insulin receptor kinase): 3.3 µM
IC50 (p60^c‐src): 4.5 µM
IC50 (protein kinase C): 4.1 µM
inhibition of Cdc2 kinase (Cdc2 kinase): not inhibited
inhibition of casein kinase I (casein kinase I): not inhibited
inhibition of casein kinase II (casein kinase II): not inhibited
inhibition of cAMP‐dependent protein kinase [2]: not inhibited
mode of inhibition with respect to ATP (EGF receptor [3]; ATP): competitive
mode of inhibition with respect to the substrate peptide (EGF receptor [3]; substrate peptide): competitive
Autophosphorylation of EGP receptor in A431 cells (EGF receptor [4]): inhibited
